Our source for the relative viability values is the supplement of paper PMC10307832.

Holding throughout (assay): relative viability (nuclei count vs DMSO), 5 days (fraction); higher = more cells survive
Compound in experiment [1]: N[C@@H]1CCCN(c2c(/C=C3\SC(=O)NC3=O)cccc2-c2ccccc2)C1 [AZD1208] + O=C(c1cc(Cc2n[nH]c(=O)c3ccccc23)ccc1F)N1CCN(C(=O)C2CC2)CC1 [Olaparib] (partner 8 µM)
The method, boiled down: (§1)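 Lung cancer cell lines were pin-tool dosed in 1536-well plates on the day after seeding, with either a lone drug or a fixed anchor-drug dose plus five library-drug doses (not always all listed) in √10 steps. Nuclei were counted on 4× images after 5 days. Relative viability is the ratio of treated-well to vehicle-well nuclei counts, with each value a median of duplicate plates.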

Compound in experiment [2]: CN1CCN(CC1)C2=CC(=C(C=C2)NC3=NC(=C(S3)C(=O)C4=C(C=CC=C4Cl)Cl)N)OC [XMD14-99] + CS(=O)(=O)N1CCN(Cc2cc3nc(-c4cccc5[nH]ncc45)nc(N4CCOCC4)c3s2)CC1 [Pictilisib] (partner 1 µM)
The method, boiled down: as §1

Compound in experiment [3]: N[C@@H]1CCCN(c2c(/C=C3\SC(=O)NC3=O)cccc2-c2ccccc2)C1 [AZD1208] + Cc1cc(Nc2cc(N3CCN(C)CC3)nc(Sc3ccc(NC(=O)C4CC4)cc3)n2)n[nH]1 [Tozasertib] (partner 0.1 µM)
A digest of the protocol: as §1

Compound in experiment [4]: CN1CCN(CC1)C2=CC(=C(C=C2)NC3=NC(=C(S3)C(=O)C4=C(C=CC=C4Cl)Cl)N)OC [XMD14-99] + COc1cc2c(Oc3ccc(NC(=O)C4(C(=O)Nc5ccc(F)cc5)CC4)cc3F)ccnc2cc1OCCCN1CCOCC1 [Foretinib] (partner 0.25 µM)
A digest of the protocol:
as §1

On to LU99A, for which the relative viability is 0.273 in experiment [1] (first compound 0.08 µM); 0.266 in experiment [1] (first compound 0.253 µM); 0.273 in experiment [1] (first compound 0.8 µM); 0.235 in experiment [1] (first compound 2.53 µM); 0.246 in experiment [1] (first compound 8 µM); 0.257 in experiment [2] (first compound 0.08 µM). In addition, the relative viability is 0.304 in experiment [2] (first compound 0.8 µM); 0.267 in experiment [2] (first compound 2.53 µM); 0.262 in experiment [2] (first compound 8 µM); 0.288 in experiment [3] (first compound 0.08 µM); 0.304 in experiment [3] (first compound 0.253 µM); 0.276 in experiment [3] (first compound 0.8 µM). The relative viability was found to be 0.3 in experiment [3] (first compound 2.53 µM); 0.203 in experiment [3] (first compound 8 µM); 0.893 in experiment [4] (first compound 0.08 µM); 0.872 in experiment [4] (first compound 0.8 µM); 0.729 in experiment [4] (first compound 2.53 µM); 0.649 in experiment [4] (first compound 8 µM).

As to HCC-44, the relative viability in experiment [1] (first compound 0.08 µM) is 0.989; in experiment [1] (first compound 0.253 µM) it was 0.918; in experiment [1] (first compound 0.8 µM) it was 0.999; in experiment [1] (first compound 2.53 µM), 0.996; in experiment [1] (first compound 8 µM), 0.919; in experiment [2] (first compound 0.08 µM) it was 0.6. The relative viability was found to be 0.655 in experiment [2] (first compound 0.8 µM); 0.568 in experiment [2] (first compound 2.53 µM); 0.626 in experiment [2] (first compound 8 µM); 0.876 in experiment [3] (first compound 0.08 µM); 1.04 in experiment [3] (first compound 0.253 µM); 0.877 in experiment [3] (first compound 0.8 µM). The relative viability in experiment [3] (first compound 2.53 µM) was determined as 0.896; in experiment [3] (first compound 8 µM), 0.866.

In the case of NCI-H1299, the relative viability amounted to 0.999 in experiment [1] (first compound 0.08 µM); 1.01 in experiment [1] (first compound 0.253 µM); 0.974 in experiment [1] (first compound 0.8 µM); 0.957 in experiment [1] (first compound 2.53 µM); 0.987 in experiment [1] (first compound 8 µM); 0.668 in experiment [2] (first compound 0.08 µM). Moreover, the relative viability in experiment [2] (first compound 0.8 µM) was determined as 0.637; in experiment [2] (first compound 2.53 µM) it was 0.623; in experiment [2] (first compound 8 µM), 0.505; in experiment [4] (first compound 0.08 µM), 1.11; in experiment [4] (first compound 0.8 µM), 1.02; in experiment [4] (first compound 2.53 µM), 1.1. Besides, the relative viability in experiment [4] (first compound 8 µM) is 0.949.

With NCI-H1648, the relative viability in experiment [1] (first compound 0.08 µM) is 1.09; in experiment [1] (first compound 0.253 µM) it was 1.44; in experiment [1] (first compound 0.8 µM) it was 0.663; in experiment [1] (first compound 2.53 µM), 0.828; in experiment [1] (first compound 8 µM), 0.939; in experiment [3] (first compound 0.08 µM), 0.599. Further, the relative viability in experiment [3] (first compound 0.253 µM) stood at 0.462; in experiment [3] (first compound 0.8 µM), 0.346; in experiment [3] (first compound 2.53 µM) it was 0.33; in experiment [3] (first compound 8 µM), 0.389.

As to NCI-H1563, the relative viability in experiment [2] (first compound 0.08 µM) came out at 0.683; in experiment [2] (first compound 0.8 µM), 0.632; in experiment [2] (first compound 2.53 µM) it was 0.666; in experiment [2] (first compound 8 µM), 0.568; in experiment [4] (first compound 0.08 µM), 0.878; in experiment [4] (first compound 0.8 µM), 0.941. Besides, the figures for the relative viability in experiment [4] (first compound 2.53 µM) and in experiment [4] (first compound 8 µM) were 0.871 and 0.74, respectively.

On to A549, for which the relative viability worked out at 0.345 in experiment [1] (first compound 0.08 µM); 0.38 in experiment [1] (first compound 0.253 µM); 0.306 in experiment [1] (first compound 0.8 µM); 0.261 in experiment [1] (first compound 2.53 µM); 0.235 in experiment [1] (first compound 8 µM); 0.397 in experiment [2] (first compound 0.08 µM). For the same cell line, the relative viability in experiment [2] (first compound 0.8 µM) is 0.545; in experiment [2] (first compound 2.53 µM), 0.505; in experiment [2] (first compound 8 µM) it was 0.348; in experiment [4] (first compound 0.08 µM), 0.899; in experiment [4] (first compound 0.8 µM) it was 0.916; in experiment [4] (first compound 2.53 µM), 0.787. The relative viability in experiment [4] (first compound 8 µM) amounted to 0.693.

NCI-H522: the relative viability came to 0.527 in experiment [1] (first compound 0.08 µM); 0.504 in experiment [1] (first compound 0.253 µM); 0.633 in experiment [1] (first compound 0.8 µM); 0.703 in experiment [1] (first compound 2.53 µM); 0.568 in experiment [1] (first compound 8 µM); 0.534 in experiment [3] (first compound 0.08 µM). The relative viability in experiment [3] (first compound 0.253 µM) is 0.619; in experiment [3] (first compound 0.8 µM), 0.492; in experiment [3] (first compound 2.53 µM), 0.514; in experiment [3] (first compound 8 µM), 0.446.

As to NCI-H1623, the relative viability in experiment [3] (first compound 0.08 µM) was 0.456; in experiment [3] (first compound 0.253 µM) it was 0.394; in experiment [3] (first compound 0.8 µM), 0.403; in experiment [3] (first compound 2.53 µM), 0.426; in experiment [3] (first compound 8 µM), 0.393; in experiment [4] (first compound 0.08 µM), 0.852. Further, the figures for the relative viability in experiment [4] (first compound 0.8 µM), in experiment [4] (first compound 2.53 µM) and in experiment [4] (first compound 8 µM) were 0.86, 0.88 and 0.68, respectively.

Turning to SW 900, the relative viability was 0.692 in experiment [1] (first compound 0.08 µM); 0.538 in experiment [1] (first compound 0.253 µM); 0.893 in experiment [1] (first compound 0.8 µM); 0.923 in experiment [1] (first compound 2.53 µM); 0.668 in experiment [1] (first compound 8 µM); 0.535 in experiment [3] (first compound 0.08 µM). Moreover, the relative viability worked out at 0.56 in experiment [3] (first compound 0.253 µM); 0.528 in experiment [3] (first compound 0.8 µM); 0.552 in experiment [3] (first compound 2.53 µM); 0.428 in experiment [3] (first compound 8 µM); 1.02 in experiment [4] (first compound 0.08 µM); 0.694 in experiment [4] (first compound 0.8 µM). Further, the results for the relative viability in experiment [4] (first compound 2.53 µM) and in experiment [4] (first compound 8 µM) were 0.802 and 0.718, respectively.

On to IA-LM, for which the relative viability was found to be 0.907 in experiment [1] (first compound 0.08 µM); 0.777 in experiment [1] (first compound 0.253 µM); 0.774 in experiment [1] (first compound 0.8 µM); 0.807 in experiment [1] (first compound 2.53 µM); 0.904 in experiment [1] (first compound 8 µM); 0.34 in experiment [2] (first compound 0.08 µM). The relative viability is 0.256 in experiment [2] (first compound 0.8 µM); 0.157 in experiment [2] (first compound 2.53 µM); 0.191 in experiment [2] (first compound 8 µM); 1.05 in experiment [4] (first compound 0.08 µM); 0.964 in experiment [4] (first compound 0.8 µM); 0.978 in experiment [4] (first compound 2.53 µM). In addition, the relative viability in experiment [4] (first compound 8 µM) was 0.458.

EBC-1: the relative viability in experiment [1] (first compound 0.08 µM) turned out to be 0.709; in experiment [1] (first compound 0.253 µM), 0.707; in experiment [1] (first compound 0.8 µM), 0.63; in experiment [1] (first compound 2.53 µM), 0.687; in experiment [1] (first compound 8 µM), 0.624; in experiment [2] (first compound 0.08 µM), 0.481. For the same cell line, the relative viability came out at 0.391 in experiment [2] (first compound 0.8 µM); 0.318 in experiment [2] (first compound 2.53 µM); 0.26 in experiment [2] (first compound 8 µM); 0.113 in experiment [4] (first compound 0.08 µM); 0.11 in experiment [4] (first compound 0.8 µM); 0.112 in experiment [4] (first compound 2.53 µM). Also, the relative viability in experiment [4] (first compound 8 µM) was 0.0979.
